The values that follow are results of earlier work, collected in US10968484B2, “Methods of identifying responses to map kinase inhibition therapy” (The Broad Institute, Inc., priority 2013, dated 2021).

Like-named read-outs stand apart in the source and are kept apart here. Some results are limits rather than exact numbers.

By IC50 is commonly meant the concentration at which inhibition is half-maximal.

This data set deals with BRAF_V600-mutant melanomas (cell lines). Conditions: read-out: PLX4720 IC50.

Take `CCCS(=O)(=O)Nc1ccc(F)c(C(=O)c2c[nH]c3ncc(Cl)cc23)c1F` [PLX4720]: the half-maximal inhibitory concentration (IC50) reads like this: (resistance class of BRAF_V600-mutant melanoma cell lines) ≥ 8 µM; (sensitive class of BRAF_V600-mutant melanoma cell lines) < 1.6 µM.
